Data taken from patent US5686495A, “Substituted hydrazinedicarboximidamides and methods of use thereof” (Cambridge NeuroScience, Inc., priority 1995, dated 1997).
Counter-ions that a name gives are not always drawn. Like-named read-outs stand apart in the source and are kept apart here.

Columns and labels:
[1] = tested on: 3H-glutamate release from rat brain synaptosomes; assay: Inhibition of K+-evoked 3H-glutamate release from synaptosomes (rapid superfusion); format: cell-based; settings: Rattus norvegicus; for activity at 30 µM / activity at 100 µM: read-out: relative level of glutamate release; for inhibition at 10 µM: read-out: Inhibition of Glutamate Release (Persistent Component), % Inhibition @ 10 uM
Method: To study the release of presynaptic ^3 H-glutamate, synaptosomes from young rats were used. CD Male rats of 4 to 6 weeks (50-75 g) were used for the preparation of synaptosomes. Rats were killed by decapitation with guillotine and the skull bone was opened in the center with the pointed blade of dissection scissors. The bone is then peeled away with a bone cutter and the brain is pried with a micro spatula. The cerebellum is removed and the rest of the brain is placed in 35 ml of 0.32M Sucrose solution and homogenized in a Thomas glass teflon homogenizer C at the maximum power setting (about 450 rpm) with 16 strokes. The pestle is rinsed with 5 ml of sucrose solution and added to the homogenate. The homogenate is centrifuged for 10 min at 3500 rpm (1500 g) in a SS-34 rotor in Sorvall RC-5B. The resulting pellet (P1) is discarded and the supernatant (S1) is recentrifuged for 20 min at 8700 rpm (8500 g). The supernatant (S2) is discarded and the pellet (P2) is resuspended in 5 ml of 0.32M sucrose and hand homogenized with 4 strokes (Thomas C) and the volume was made up to 8 ml. This homogenate was layered on 20 ml of 0.8M sucrose solution in two centrifuge tubes and spun for 25 minutes at 8700 rpm (8500 g). At the end of this spin, most of the myelin stays at the interphase of 0.32M and 0.8M sucrose and mitochondria pellet as a brown pellet. The synaptosomes are dispersed in the 0.8M sucrose. Using a 10 ml pipette, the 0.8M sucrose layer is collected (without disturbing the top myelin layer or the pellet) and diluted slowly with an equal volume of chilled basal buffer, while stirring gently with a Pasteur pipette. This diluted solution is centrifuged for 10 min at 10,000 rpm (12,000 g) and the pellet is resuspended in 1.5 ml of basal buffer and hand-homogenized in a Wheaton glass-glass 7 ml homogenizer with 8 strokes.
The synaptosomal homogenate is diluted 1 ml to 10 ml with basal buffer. This dilution gives a protein concentration of 500 to 600 μg/ml. One hundred μl of this diluted prep with 50-60 μg of protein is used for each superfusion event. […] The diluted synaptosomal solution was kept on ice until the end of the experiment.
^3 H-glutamate (purchased from NEN) is stored in the refrigerator. Pipette 6 μl ([…]; 40 to 55 Ci/mmol) into a disposable test tube. Add 100 μl of diluted prep and mix gently on vortex and incubate at 30° C. for 10 min. ^3 H-glutamate is taken up by sodium-coupledglutamate transporter present in synaptosomal membranes. After 10 min, dilute the incubation mixture with 690 μl of basal buffer. This solution is then transferred in Tygon tubing that is connected to the synaptosome loading chamber. Using a syringe filler with air, the solution is forced through the Millipore SC--GF/F--Millipore SC filter sandwich. These filters retain the synaptosomes and the solution flows through.
An important component of the superfusion setup is the custom made stainless steel "General Valve" three-valve solenoid operated superfusion chamber with an outlet for the effluent. The three inlets are connected to stainless steel buffer reservoirs that contain (1) wash buffer, (2) control buffer and (3) experimental buffer which are kept under 40 psi of nitrogen gas through teflon tubing connections. The superfusion is controlled through a menu-driven program on an Apple IIe computer. See Turner, J. T. et al., Anal. Biochem. 178:8-16 (1989), and U.S. Pat. No. 4,891,185, the disclosures of which are fully incorporated by reference herein.
The superfusion chamber has a teflon bushing and a stainless steel washer fixed with the flat surface facing the filters. A GF/B filter disc is placed first in the chamber to eliminate the switching related artifacts. The synaptosome loaded sandwich is then placed facing the synaptosomes into the flow followed by RA filter, stainless steel screen and a washer with the flat side facing the screen.

[2] = tested on: potassium-stimulated 45Ca uptake of synaptosomes; assay: Potassium-stimulated 45Ca uptake into synaptosomes; format: cell-based, rat
Method: Several compounds were also tested to determine whether the Ca^2+ dependent and independent components of glutamate release are related to the blockage of ^45 Ca uptake. Calcium uptake is one step in the cascade of events which occur in neuronal cell death from ischemia. See Bassaclough and Leach, Current Patents Ltd., 2-27. The Ca-flux protocol is as follows. Rat brain synaptosomes were prepared according to Hajos, Brain Res. 93:485 (1975). Synaptosomes were suspended in low potassium "LK" buffer (containing 3 mM KCl) at 2 mg/ml. […] After 5 seconds, the ^45 Ca flux was stopped with 0.9 ml quench solution (LK+10 mM EGTA). The solution was filtered under vacuum and the filters washed with 15 ml of quench buffer. The effect of drug is expressed as % inhibition (or block) of control potassium-stimulated ^45 Ca influx. This method is an adaptation of the method disclosed by Nachsen and Blaustein, J. Physiol. 361:251-268 (1985).

[3] = Rattus norvegicus, read-out: Inhibition of 45Ca Uptake, % Inhibition @ 10 uM (SEM)
[4] = Rattus norvegicus; read-out: Inhibition of 45Ca Uptake, IC50
[5] = Rattus norvegicus, read-out: % Uptake vs. Control
[6] = 10 μM; potassium-stimulated uptake of calcium into synaptosomes

In the case of `N=C(Nc1ccccc1I)N[C@H]1C[C@H]2CC[C@@H]1C2` (relative stereo) [N-((±)-endo-2-norbornyl)-N' (2-iodophenyl)guanidine], the activity at 30 µM [1] is reported as 77%.
Compound `Cc1ccccc1CNCc1ccccc1C` [Di-(o-methyl)benzyl)amine] has an activity at 30 µM [1] of 100%.
For `C1CCC(N=C(NNC(=NC2CCCCC2)NC2CCCCC2)NC2CCCCC2)CC1` [N,N',N",N"'-Tetracyclohexyl-Hydrazinedicarboximidamide], the inhibition at 10 µM [1] was 67%, the activity at 30 µM [1] was 51% and the inhibition at 10 µM [2, 3] was 74%. The IC50 ([2]; Rattus norvegicus; FIG. 6 curve fits; read-out: IC50, inhibition of potassium-stimulated Ca uptake of synaptosomes (FIG. 6)) was 3.3 µM and the IC50 [2, 4] was 3 µM.
`N=C(Nc1ccc2cccc3c2c1CC3)Nc1ccc2cccc3c2c1CC3` [N,N'-Bis (3-acenaphthyl)guanidine, N,N'-Bis (3-Acenaphthyl)Guanidine Hydrobromide] was tested, and the inhibition at 10 µM [2, 3] was 36% and the IC50 ([2]; Rattus norvegicus, read-out: Inhibition of 45Ca Uptake, IC50) was 11 µM.
`N=C(NN1CCCc2ccccc21)NN1CCCc2ccccc21` [N,N'-Bis(1,2,3,4-tetrahydro-1-quinolinyl)-guanidine] was tested, and the activity at 10 µM [2, 5] was 87%.
`N=C(NC1CCc2ccccc21)NC1CCc2ccccc21` (centres unmarked) [N,N'-Bis(indan-1-yl)-guanidine] was tested, and the activity at 10 µM [2, 5] was 88%.
Work on `CCc1cccc(N2CCN(c3cccc(CC)c3)C2=N)c1` [N,N'-Bis(m-ethylphenyl)-2-imino-imidazolidine] yielded an activity at 10 µM [2, 5] of 101%.
In the case of `Cc1ccccc1N1CCCCN(c2ccccc2C)C1=N` [N,N'-Bis(o-tolyl)-N,N'-butanyl(bridge)-guanidine], the activity at 10 µM [2, 5] is reported as 119%.
Work on `CC(C)(C)c1ccc(NC(=N)Nc2ccc(C(C)(C)C)cc2)cc1` [N,N'-Bis(p-tert.-butylphenyl) guanidine] yielded an inhibition at 10 µM [2, 3] of 47%.
`CC(C)c1ccc(NC(=N)Nc2ccc(C(C)C)cc2)cc1` [N,N'-Di-(4-isopropylphenyl)guanidine] gave an inhibition at 10 µM [2, 3] of 48% and an IC50 [2, 4] of 19 ± 7 µM.
Compound `N=C(Nc1cccc2ccccc12)Nc1cccc2ccccc12` [N,N'-di-(1-naphthyl)guanidine] has an inhibition at 10 µM [1] of 31%, an activity at 30 µM [1] of 19% and an activity at 100 µM [1] of 29%. For the same compound, the inhibition at 10 µM [2, 3] was 27% and the IC50 [2, 4] was 23.6 ± 10 µM.
Compound `N=C(Nc1ccccc1I)Nc1ccccc1I` [N,N'-di-(2-iodophenyl)guanidine] has an activity at 100 µM [1] of 61%.
`CCc1cccc(NC(=N)N(C)c2cccc(CC)c2)c1` [N,N'-di-(3-ethylphenyl)-N-methylguanidine] was tested, and the activity at 30 µM [1] was 88%.
Work on `Cc1ccccc1NC(=N)Nc1ccccc1C` [N,N'-di-(o-tolyl)guanidine] yielded an activity at 100 µM [1] of 91%.
`CCc1cccc(N(C)C(=N)Nc2cccc3ccccc23)c1` [N-(1-naphthyl)-N'-(m-ethylphenyl)-N'-methylguanidine] was tested, and the activity at 30 µM ([1]; 30 μM, Control = 100, K+ depolarization) was 76% and the activity at 100 µM ([1]; 100 μM, Control = 100, K+ depolarization) was 21%.
`CC(C)c1ccccc1NC(=N)Nc1cccc2ccccc12` [N-(1-naphthyl)-N'-(o-isopropylphenyl)guanidine] gave an activity at 30 µM [1] of 100%.
With `CC(C)c1ccccc1NC(=N)N(C)c1cccc2ccccc12` [N-(1-naphthyl)-N-methyl-N'-(o-isopropylphenyl)guanidine] the activity at 30 µM [1] was 95%.
Work on `CC(C)c1ccc(NC(=N)Nc2ccc3c4c(cccc24)CC3)cc1` [N-(3- and 5-Acenaphthyl)-N'-(4-isopropylphenyl)-guanidine.HCl] yielded an inhibition at 10 µM [2, 3] of 68% and an IC50 [2, 4] of 6.5 ± 1 µM.
Compound `CCc1cccc(NC(=N)Nc2cccc3ccccc23)c1` [N-(3-ethylphenyl)-N'-(1-naphthyl)guanidine] has an activity at 30 µM [1] of 59%.
`N=C(Nc1cccc2ccccc12)Nc1ccc2c3c(cccc13)CC2` [N-(5-acenaphthyl)-N'-(1-naphthyl)guanidine] was tested, and the inhibition at 10 µM [2, 3] was 40 ± 6% and the IC50 [2, 4] was 16.2 ± 0.4 µM.
Compound `N=C(Nc1ccc2c3c(cccc13)CC2)NC12CC3CC(CC(C3)C1)C2` [N-(5-acenaphthyl)-N'-(adamant-1-yl)guanidine] has an inhibition at 10 µM [2, 3] of 47 ± 11% and an IC50 [2, 4] of 9.7 ± 3 µM.
Compound `CCc1cccc(N(C)C(=N)Nc2cccc3ccc(=O)oc23)c1` [N-(8-Aminocoumarinyl)-N'-(m-ethylphenyl)-N'-methyl-guanidine] has an activity at 10 µM [2, 5] of 151%.
Compound `N=C(Nc1cccc2ccccc12)NC12CC3CC(CC(C3)C1)C2` [N-(Adamantan-1-yl)-N' (α-naphthyl)guanidine] has an inhibition at 10 µM [2, 3] of 31%.
With `N=C(Nc1cccc2nsnc12)NC12CC3CC(CC(C3)C1)C2` [N-(Adamantan-1-yl)-N'-(4,5-benzo-2-thia-1,3-diazol-6-yl)guanidine] the “% Uptake vs. Control” value [2, 6] was 98%.
`N=C(NC1C2CC3CC(C2)CC1C3)NC12CC3CC(CC(C3)C1)C2` (centres unmarked) [N-(Adamantan-1-yl)-N'-(adamantan-2-yl)guanidine] gave an inhibition at 10 µM [2, 3] of 49%.
Work on `N=C(NC1CCCCC1)NN1CCCCC1` [N-(Cyclohexyl)-N'-(1-piperidinyl)-guanidine] yielded an activity at 10 µM [2, 5] of 108%.
With `N=C(Nc1ccccc1I)NC12CC3CC(CC(C3)C1)C2` [N-(adamantan-1-yl)-N'-(2-iodophenyl)guanidine] the activity at 30 µM [1] was 39%.
`Cc1ccccc1NC(=N)NC12CC3CC(CC(C3)C1)C2` [N-(adamantan-1-yl)-N'-(2-methylphenyl)guanidine] was tested, and the activity at 30 µM [1] was 52% and the activity at 100 µM [1] was 45%.
`N=C(NC1CCCCC1)NC12CC3CC(CC(C3)C1)C2` [N-(adamantan-1-yl)-N'-cyclohexylguanidine] gave an activity at 30 µM [1] of 120%.
`N=C(Nc1ccccc1I)NC1C2CC3CC(C2)CC1C3` (centres unmarked) [N-(adamantan-2-yl)-N'-(2-iodophenyl)guanidine] showed an activity at 30 µM [1] of 74%.
`Cc1ccccc1NC(=N)NC1C2CC3CC(C2)CC1C3` (centres unmarked) [N-(adamantan-2-yl)-N'-(2-methylphenyl)guanidine] was tested, and the activity at 30 µM [1] was 100%.
`CCOC(=O)c1cc2cccc(NC(=N)N(C)c3cccc(CC)c3)c2o1` [N-(m-Ethylphenyl)-N'-(2-carboethoxy-7-benzofuranyl)-N-methyl guanidine] showed an activity at 10 µM [2, 5] of 71%.
Work on `N=C(Nc1cccc2ccccc12)NN1CCCCC1` [N-(α-Naphthyl)-N'-(1-piperidinyl)-guanidine] yielded an activity at 10 µM [2, 5] of 131%.
`CCc1cccc(NC(=NC#N)Nc2cccc3ccccc23)c1` [N-(α-Naphthyl)-N'-(m-ethylphenyl)-N"-cyano-guanidine] was tested, and the activity at 10 µM [2, 5] was 95%.
`N=C(Nc1ccccc1I)Nc1cccc2ccccc12` [N-(α-naphthyl)-N'-(2-iodophenyl)guanidine] was tested, and the activity at 30 µM [1] was 77%.
Work on `N=C(NCC12CC3CC(CC(C3)C1)C2)NCC12CC3CC(CC(C3)C1)C2` [N-N'-Bis(1-Adamantanemethyl)-guanidine] yielded an activity at 10 µM [2, 5] of 111%.
For `Cc1ccccc1NC(=N)NC1CCCCC1` [N-cyclohexyl-N'-(2-methylphenyl)guanidine], the activity at 30 µM [1] was 100%.
“N-(α-Naphthyl)-N'-(4-phenylpiperidinyl)-guanidine” was tested, and the “% Uptake vs. Control” value [2, 6] was 79%.
